{"source": "paper PMC11876601", "about": "(Molecular Systems Biology, 2025)", "key": {"[1]": {"molecular_target": "several subunits of CSNK2", "experiment": "Kinobeads competition pulldown in AsPC-1 lysate", "assay_type": "binding, human", "conditions": "read-out: KDapp", "method": "This was followed by incubation with Kinobeads ε (17.5 µl of settled beads) for 30 min at 4 °C to enrich kinases. […] Enriched proteins were reduced with 50 mM DTT in 8 M urea, 40 mM Tris-HCl, pH 7.4 for 30 min at room temperature, and alkylated with 55 mM chloroacetamide. After reducing the urea concentration to 1–2 M, proteins were digested with trypsin at 37 °C for 16 h. Subsequently, eluted peptides were desalted using SepPak tC18 µElution plates (Waters), freeze-dried by vacuum centrifugation, and stored at −20 °C.\nFor LC-MS/MS, dried peptides were reconstituted in 0.1% formic acid and analyzed on a Dionex Ultimate3000 nano HPLC (Thermo Scientific) coupled to an Orbitrap Fusion Tribrid mass spectrometer (Thermo Scientific), which was run in data-dependent mode. […]\nOxidized methionine and N-terminal acetylation were set as variable modification, and cysteine carbamidomethylation was set as fixed modification. Label-free quantification (LFQ) and match-between-runs were enabled. […]\nProteins were filtered by potential contaminants, reversed hits and proteins identified only by site. Residual binding of proteins was calculated from LFQ intensities as the ratio between drug doses and vehicle. […] Only kinases quantified with at least 4 unique peptides in the vehicle experiment were considered. […]"}, "PDO UME012": {"tested_on": "PDO UME012", "experiment": "PDO viability assay (CellTiter-Glo, 72 h);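 on Curve top: fraction of plate-wise median vehicle signal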", "assay_type": "cell-based, human", "set-up": "Curve bottom: scale not given here", "method": "Primary patient-derived PDAC organoid (PDO) experiments were performed in the laboratories of Prof. Maximilian Reichert (University Hospital of the TU Munich, Germany, PDO set 1: B250, B535, B678) and Prof. Jens T. Siveke (University Hospital Essen, Germany; PDO set 2: UME008, UME012, UME051, UME053, UME060, UME061). PDOs were generated from surgical resection, EUS-guided fine needle biopsy (EUS-FNB), or ascites (Appendix Table S2). Surgical specimens were first minced with a sterile scalpel and subsequently washed with Anti-Anti solution and washing medium (PDO set 1), or vice versa (PDO set 2; Appendix Table S3). Biopsy samples were directly washed with an Anti-Anti solution and washing medium. Samples were digested using 1 ml of digestion medium at 37 °C while shaking, and the enzymatic reaction was stopped by adding 15 ml of washing medium (Appendix Table S3). If samples of PDO set 1 were blood-stained, tissue pellets were first incubated with ACK lysing buffer/red blood cells lysis buffer (Thermo Fisher Scientific) for 5 min and then digested using TrypLE (Thermo Fisher Scientific). The reversed procedure was applied for blood-stained samples of PDO set 2. For PDO generation from ascites, the material was first spun down at 500 × g for 5 min. Then, washing medium was added and the suspension was centrifuged at 300 × g for 5 min. If the pellet was blood-stained, ACK lysis buffer was added and incubated at room temperature.\nFor viability assays in PDOs, confluent organoids were removed from medium, and Matrigel was dissolved by adding 200 μl (PDO set 1) or 2 ml (PDO set 2) of Cell Recovery Solution (Corning), and additionally 500 μl of DPBS (PDO set 1 only). Samples were transferred into a falcon and incubated on ice for 30 min, followed by centrifugation at 300 × g at 4 °C for 5 min (after adding 10 ml washing medium for PDO set 2). Subsequently, TrypLE Express Enzyme (Thermo Fisher) was added to cell pellets and incubated for 2 × 5 min at 37 °C. The enzymatic reaction was quenched by DPBS (PDO set 1) or washing medium (PDO set 2), and samples were washed by centrifugation at 300 × g at 4 °C for 5 min. Five hundred cells/well were seeded in 384-well plates (Corning) in 50 μl of PDO medium containing 10% Matrigel. To allow PDO generation, cells were incubated for 4 days at 37 °C and 5% CO2. […] Experiments were pipetted manually (PDO set 1) or automatically using a TECAN D300e Digital Dispenser (HP; PDO set 2). Treatments were performed in eight replicates, except for PDO PPES045 (quadruplicates). After 72 h, cell viability was measured using the CellTiter-Glo Luminescent Cell Viability Assay (Promega) diluted 1:5 in the final volume of the well. After 20 min of incubation at room temperature under gentle shaking, the acquisition was performed in the microplate reader VantaSTAR (BMG Labtech) using 3000 gain for the amplification measurement of a detected signal (PDO set 1) or the Spark Multimode microplate reader (TECAN) at 800 ms integration time (PDO set 2)."}, "CSNK2A2": {"tested_on": "CSNK2A2", "conditions": "CSNK2A2, 5 cell line mix lysate, Kinobeads ε, ref Reinecke et al. (2023), cited from earlier work"}, "[2]": {"conditions": "PDO UME012, GEM + Elimusertib (ATRi) dose1, per replicate"}, "[3]": {"conditions": "PDO UME012, GEM + Elimusertib (ATRi) dose2, per replicate"}, "[4]": {"conditions": "PDO UME012, GEM + Elimusertib (ATRi) dose3, per replicate"}, "[5]": {"conditions": "PDO UME012, GEM alone, per replicate"}}, "note": "“And” between values parts separate entries of the source, which are not always exact repeats. Identical values can stand only once. Like-named read-outs stand apart in the source and are kept apart here.", "data": [{"compound": "Nc1nn2cc(F)cnc2c1C(=O)Nc1cncc(F)c1N1CCC(C(=O)N2CCN(C3COC3)CC2)CC1", "note": "[Gartisertib]", "values": [{"measurement": "Kd", "setting": "[1]", "value": "10 to 20", "unit": "nM"}]}, {"compound": "Nc1ccn([C@@H]2O[C@H](CO)[C@@H](O)C2(F)F)c(=O)n1", "note": "[GEM, Gemcitabine]", "values": [{"measurement": "EC50", "setting": "PDO UME012; Homo sapiens, PDO UME012, GEM + Elimusertib (ATRi) dose1, mean of replicates, read-out: EC50 mean", "value": 12.6, "unit": "nM"}, {"measurement": "EC50", "setting": "PDO UME012; Homo sapiens, PDO UME012, GEM + Elimusertib (ATRi) dose1, per replicate, read-out: EC50", "value": 11.3, "unit": "nM"}, {"measurement": "EC50", "setting": "PDO UME012; Homo sapiens, PDO UME012, GEM + Elimusertib (ATRi) dose1, per replicate, read-out: pEC50 (converted)", "value": 11.2, "unit": "nM"}, {"measurement": "EC50", "setting": "PDO UME012; Homo sapiens, PDO UME012, GEM + Elimusertib (ATRi) dose2, mean of replicates, read-out: EC50 mean", "value": 3.06, "unit": "nM"}, {"measurement": "EC50", "setting": "PDO UME012; Homo sapiens, PDO UME012, GEM + Elimusertib (ATRi) dose2, per replicate, read-out: EC50", "value": 3.37, "unit": "nM"}, {"measurement": "EC50", "setting": "PDO UME012; Homo sapiens, PDO UME012, GEM + Elimusertib (ATRi) dose2, per replicate, read-out: pEC50 (converted)", "value": 3.39, "unit": "nM"}, {"measurement": "EC50", "setting": "PDO UME012; Homo sapiens, PDO UME012, GEM + Elimusertib (ATRi) dose3, mean of replicates, read-out: EC50 mean", "value": 2.42, "unit": "nM"}, {"measurement": "EC50", "setting": "PDO UME012; Homo sapiens, PDO UME012, GEM alone, mean of replicates, read-out: EC50 mean", "value": 29.1, "unit": "nM"}, {"measurement": "EC50", "setting": "PDO UME012; Homo sapiens, PDO UME012, GEM alone, read-out: EC50 mean", "value": 29.1, "unit": "nM"}, {"measurement": "Curve bottom", "setting": "PDO UME012; [2]", "value": "11.29 and 15.69 and 14.76 and 8.69"}, {"measurement": "Curve slope", "setting": "PDO UME012; [2]", "value": "0.09 and 0.08 and 0.07"}, {"measurement": "Curve top", "setting": "PDO UME012; [2]", "value": "1.40 and 1.29 and 1.32 and 1.45"}, {"measurement": "pEC50", "setting": "PDO UME012; [2]", "value": "7.80 and 7.83 and 8.06"}, {"measurement": "EC50", "setting": "PDO UME012; PDO UME012, GEM + Elimusertib (ATRi) dose1, per replicate, read-out: EC50", "value": "15.7 nM and 14.8 nM and 8.69 nM"}, {"measurement": "Curve bottom", "setting": "PDO UME012; [3]", "value": "3.37 and 3.54 and 2.28"}, {"measurement": "Curve slope", "setting": "PDO UME012; [3]", "value": "0.0214 and 0.0222 and 0.0167"}, {"measurement": "Curve top", "setting": "PDO UME012; [3]", "value": "1.13 and 1.28 and 1.51"}, {"measurement": "pEC50", "setting": "PDO UME012; [3]", "value": "8.45 and 8.64"}, {"measurement": "EC50", "setting": "PDO UME012; PDO UME012, GEM + Elimusertib (ATRi) dose2, per replicate, read-out: EC50", "value": "3.54 nM and 2.28 nM"}, {"measurement": "Curve bottom", "setting": "PDO UME012; [4]", "value": "3.57 and 1.25 and 2.45"}, {"measurement": "Curve slope", "setting": "PDO UME012; [4]", "value": "0.02 and 0.05 and 0.0372"}, {"measurement": "Curve top", "setting": "PDO UME012; [4]", "value": "1.09 and 0.99 and 1.02"}, {"measurement": "pEC50", "setting": "PDO UME012; [4]", "value": "8.45 and 8.90 and 8.61"}, {"measurement": "EC50", "setting": "PDO UME012; PDO UME012, GEM + Elimusertib (ATRi) dose3, per replicate, read-out: EC50", "value": "3.57 nM and 1.25 nM and 2.45 nM"}, {"measurement": "Curve slope", "setting": "PDO UME012; [5]", "value": "0.62 and 0.42 and 0.70 and 0.52"}, {"measurement": "Curve top", "setting": "PDO UME012; [5]", "value": "1.21 and 1.18 and 1.06 and 1.19"}, {"measurement": "pEC50", "setting": "PDO UME012; [5]", "value": "8.15 and 7.29 and 7.52 and 7.56"}, {"measurement": "EC50", "setting": "PDO UME012; PDO UME012, GEM alone, per replicate, read-out: EC50", "value": "7.11 nM and 51.3 nM and 30.5 nM and 27.6 nM"}]}, {"compound": "COc1cc(N2CCC(N3CCN(C)CC3)CC2)ccc1Nc1ncc(Cl)c(Nc2ccccc2P(C)(C)=O)n1", "note": "[Brigatinib]", "values": [{"measurement": "EC50", "setting": "CSNK2A2", "value": 720, "unit": "nM"}, {"measurement": "pKDapp", "setting": "CSNK2A2", "value": 6.16}, {"measurement": "Kd", "setting": "CSNK2A2; read-out: KDapp", "value": 693, "unit": "nM"}]}]}
